# According to patent publication US20260207570A1, “OPTIMIZED DOSING OF LERIGLITAZONE” (MINORYX THERAPEUTICS S.L., priority 2022, published 2026):
# Where two headings read alike, the source gives them in different places.
# Legend:
# [1] = Phase 1 single ascending dose (SAD) pharmacokinetics in healthy volunteers; assay type: in vivo, human; details: for half-life / Tmax / Cmax / AUC(0-t) / AUC: male, human, plasma, oral; for Tmax: read-out: Tmax; for Cmax: plasma total, read-out: Cmax; for AUC(0-t) / AUC: geometric mean; for AUC: read-out: AUC
# Procedure: (§1) Study design: A phase 1, randomized, double blind, placebo-controlled, single-center clinical study in 33 male healthy volunteers (HV) (19-54 years, 63.2-95.7 Kg) was conducted with leriglitazone HCl and divided in two parts: a single ascending dose (SAD) with three dose levels (30, 90 and 270 mg) in fasted conditions, followed with two dose levels (90 and 270 mg) in fed conditions; a multiple ascending dose (MAD) with a double-blind, parallel-design with two dose levels (135 and 270 mg) for 8 days and a separate cohort of subjects in an open-label parallel design with two dose levels (135 and 270 mg) including cerebrospinal fluid (CSF) collection on day 8. In the fasted conditions a fasting period of at least 4 hours was required before obtaining plasma samples. The food effect (FE) was assessed by comparing fasted with fed conditions (dosing after a high-fat breakfast per FDA definition with a calculated caloric content of 918 kcal). In the MAD part (fed) the medication was taken before a normal breakfast. Leriglitazone HCl was supplied by ChemConnection and an oral suspension of leriglitazone (20% w/v kleptose, 2% ethanol in 100 mM phosphate buffer pH=7.8) at 6 mg/ml was used in the study.
# (§2) Blood, Urine and CSF sampling: In the SAD, blood samples were drawn at the following time points: pre-dose and 0.25, 0.5, 0.75, 1, 1.5, 2, 2.5, 3, 4, 5, 6, 8, 10, 12, 16, 24, 36, 48, 72, 96 and 120 hours post-dose. Urine was collected at pre-dose (within 12 hours prior to dosing) and over 0-6, 6-12, 12-24, 24-36, 36-48 hours post-dose collection intervals. In the MAD, blood samples were collected on day 1 at pre-dose and 0.25, 0.5, 0.75, 1, 1.5, 2, 2.5, 3, 4, 5, 6, 8, 10, 12, and 16 hours post-dose and at pre-dose and at 4 hours post-dose on day 2 to day 7, and on day 8 at pre-dose and 0.25, 0.5, 0.75, 1, 1.5, 2, 2.5, 3, 4, 5, 6, 8, 10, 12, 16, 24, 36, 48, 72, 96 and 120 hours post-dose. CSF were taken on day −1 and on day 8, at 4 hours post-dose.
# (§3) Pharmacokinetic parameter calculation: PK parameters (Cmax, Tmax, t1/2, AUC0-t, CL/F, Vz/F, AUC0-t, RAUC, RCmax) were estimated using non-compartmental analysis (NCA) (Phoenix WinNonlin® Version 6.3).
# (§4) Statistical analysis: Descriptive statistics for all relevant PK parameters: n, mean, minimum, median, maximum, geometric mean, and coefficient of variation (CV %); analysis of variance on Cmax and AUC to determine dose proportionality and food effect (FE).
# [2] = Phase 1 multiple ascending dose (MAD) pharmacokinetics with CSF collection in healthy volunteers; assay type: in vivo, human; details: for accumulation RCmax: day 8 vs day 1; for Kp at 4 h / concentration at 4 h / Tmax / Vd/F / Cmax: male, human, oral; for Kp at 4 h: CSF and plasma; for Tmax: Median, read-out: Tmax; for Vd/F: read-out: Vz/F; for Cmax: plasma total, geometric mean, read-out: Cmax
# Procedure: as §1, §2, §3, §4
# The ratio of unbound leriglitazone concentration in brain to unbound concentration in plasma (Kpu,u; Cb,u/Cp,u) was calculated dividing the unbound CSF Cmax by the unbound plasma Cmax. Fractions unbound in plasma (fu,p) to obtain the unbound Cmax values were already reported. Rodriguez-Pascau, L. et al., Sci. Transl. Med. 13, eabc0555 (2021).
# [3] = plasma, 135 mg, 135 mg MD Day 1, n = 8
# [4] = plasma, 135 mg, 135 mg MD Day 8, n = 8
# [5] = plasma, 270 mg, 270 mg MD Day 1, n = 8
# [6] = plasma, 270 mg, 270 mg MD Day 8, n = 7
compound,measurement,setting,value
"CC(=O)c1ccc(CCOc2ccc(CC3SC(=O)NC3=O)cc2)nc1 (stereo not shown) [Compound M3, 5-[[4-[2-[5-acetylpyridin-2-yl]ethoxy]phenyl]methyl]-1,3-thiazolidine-2,4-dione]",dose excreted in urine as free analyte,[1]; 48-hour collection period,< 0.01%
same,"dose excreted in urine as the analyte, mostly in a conjugated state",[1]; 48-hour collection period,0.3%
same,half-life,"[1]; 30 mg, M3 section, SAD 30 mg fasted, n = 6, geometric mean (CV %), read-out: t1/2 (converted)",22.1 h
same,Tmax,"[1]; 30 mg, SAD 30 mg fasted, n = 6, Median",0.63 h
same,Cmax,"[1]; 30 mg, SAD 30 mg fasted, n = 6, geometric mean (CV %)",828 ng/mL
same,half-life,"[1]; 90 mg, M3 section, SAD 90 mg fasted, n = 6, geometric mean (CV %), read-out: t1/2 (converted)",23.2 h
same,half-life,"[1]; 90 mg, M3 section, SAD 90 mg fed, n = 3, geometric mean (CV %), read-out: t1/2 (converted)",25.7 h
same,Tmax,"[1]; 90 mg, SAD 90 mg fasted, n = 6, Median",0.63 h
same,AUC(0-t),"[1]; 90 mg, SAD 90 mg fasted, n = 6",59400 ng·h/mL
same,AUC,"[1]; 90 mg, SAD 90 mg fasted, n = 6",61800 ng·h/mL
same,Cmax,"[1]; 90 mg, SAD 90 mg fasted, n = 6, geometric mean (CV %)",2550 ng/mL
same,Tmax,"[1]; 90 mg, SAD 90 mg fed, n = 3, Median",5 h
same,AUC(0-t),"[1]; 90 mg, SAD 90 mg fed, n = 3",59900 ng·h/mL
same,AUC,"[1]; 90 mg, SAD 90 mg fed, n = 3",62200 ng·h/mL
same,Cmax,"[1]; 90 mg, SAD 90 mg fed, n = 3, geometric mean (CV %)",1980 ng/mL
same,half-life,"[1]; 270 mg, M3 section, SAD 270 mg fasted, n = 5, geometric mean (CV %), read-out: t1/2 (converted)",21.6 h
same,half-life,"[1]; 270 mg, M3 section, SAD 270 mg fed, n = 5, geometric mean (CV %), read-out: t1/2 (converted)",22.7 h
same,Tmax,"[1]; 270 mg, SAD 270 mg fasted, n = 5, Median",1.5 h
same,Tmax,"[1]; 270 mg, SAD 270 mg fed, n = 5, Median",4 h
same,AUC(0-t),"[1]; 270 mg, SAD 270 mg fed, n = 5",155000 ng·h/mL
same,AUC,"[1]; 270 mg, SAD 270 mg fed, n = 5",159000 ng·h/mL
same,Cmax,"[1]; 270 mg, SAD 270 mg fed, n = 5, geometric mean (CV %)",5320 ng/mL
same,Tmax,"[1]; 270 mg, SAD fed conditions, 90 and 270 mg",3 to 6 h
same,half-life,"[1]; SAD, read-out: Half-lives",22 to 23 h
same,CL/F,"[2]; 135 mg MD Day 1, n = 8, geometric mean (CV %)",3.69 (29.4) L./h
same,CL/F,"[2]; 135 mg MD Day 8, n = 8, geometric mean (CV %)",2.15 (27.6) L./h
same,CL/F,"[2]; 270 mg MD Day 1, n = 8, geometric mean (CV %)",3.29 (26.4) L./h
same,Plasma C4h,"[2]; 270 mg MD Day 8, 4 hours post-dose, total, geometric mean (CV %)",:5673 (34.2) ng/mL
same,CL/F,"[2]; 270 mg MD Day 8, n = 7, geometric mean (CV %)",2.13 (25.9) L./h
same,increase of CSF concentration on doubling the dose,"[2]; 270 mg vs 135 mg, day 8, 4 hours post-dose",1.7 fold
same,accumulation RCmax,[2]; MAD 135 mg,1.57
same,accumulation RAUC,[2]; MAD 270 mg dose,1.63
same,accumulation RCmax,[2]; MAD 270 mg,1.69
same,brain penetration,[2]; judged from CSF to plasma concentrations,limited
same,Kp at 4 h,"[2]; 135 mg MD Day 8, geometric mean (CV %), read-out: CSF/Plasma",0.004
same,Kp at 4 h,"[2]; 270 mg MD Day 8, geometric mean (CV %), read-out: CSF/Plasma",0.004
same,Kp at 4 h,"[2]; day 8, 4 hours post-dose, read-out: total concentrations in CSF as share of total plasma concentrations",0.004
same,concentration at 4 h,"[2]; CSF, 135 mg MD Day 8, 4 hours post-dose, total, geometric mean (CV %), read-out: CSF C4h",13 ng/mL
same,concentration at 4 h,"[2]; CSF, 270 mg MD Day 8, 4 hours post-dose, total, geometric mean (CV %), read-out: CSF C4h",22 ng/mL
same,Tmax,[2]; [3],3.5 h
same,Vd/F,"[2]; plasma, 135 mg, 135 mg MD Day 1, n = 8, geometric mean (CV %)",111 L
same,Cmax,[2]; [3],2470 ng/mL
same,Tmax,[2]; [4],2.75 h
same,Vd/F,"[2]; plasma, 135 mg, 135 mg MD Day 8, n = 8, geometric mean (CV %)",63.5 L
same,Cmax,[2]; [4],4150 ng/mL
same,Tmax,[2]; [5],3.5 h
same,Vd/F,"[2]; plasma, 270 mg, 270 mg MD Day 1, n = 8, geometric mean (CV %)",103 L
same,Cmax,[2]; [5],5360 ng/mL
same,Tmax,[2]; [6],2.5 h
same,Vd/F,"[2]; plasma, 270 mg, 270 mg MD Day 8, n = 7, geometric mean (CV %)",69.3 L
same,Cmax,[2]; [6],8030 ng/mL
same,concentration at 4 h,"[2]; plasma, 135 mg MD Day 8, 4 hours post-dose, total, geometric mean (CV %), read-out: Plasma C4h",3600 ng/mL
